Assay results as given in publication PMC11435065, “Inhibition of P-Glycoprotein Asymmetrically Alters the In Vivo Exposure Profile of SGC003F: A Novel Guanylate Cyclase Stimulator” (Pharmaceuticals, 2024).
Where two headings read alike, the source gives them in different places.

Assay: Plasma pharmacokinetics of SGC003F in rats with or without tariquidar
Format: in vivo, rat
Settings: for clearance / AUC(0-t) / Vd / Tmax / half-life / Cmax / bioavailability: male, Sprague-Dawley, plasma; for Vd: read-out: Vss; for bioavailability: read-out: F (bioavailability)
Experimental: Adult Sprague Dawley rats (230–280 g) were obtained from Beijing Vital River Laboratory Animal Technology Co., Ltd. (Beijing, China). The animals were kept in a controlled environment with a 12 h light/dark cycle and stable temperature, and had free access to food and water, adapting for one week. All animal procedures were approved by the Experimental Animal Ethics Committee of Beijing Institute of Pharmacology and Toxicology (IACUC-DWZX-2023-P718).
SGC003F and tariquidar were dissolved in a solvent consisting of 11% isopropyl myristate, 74% polyethylene glycol 35 castor oil, and 15% diethylene glycol monoethyl ether. The stock solution concentrations were 1 mg/mL for SGC003F and 22.5 mg/mL for tariquidar. Next, the stock solution of SGC003F and tariquidar were diluted with saline at a ratio of 1:9 and 1:3.5, respectively, to achieve a working solution of SGC003F (0.1 mg/mL) and tariquidar (5 mg/mL) for oral and intravenous administration in rats.
Thirty-six male SD rats were randomly divided into 6 groups, with 6 rats in each group. Group I: SGC003F (p.o., 1 mg/kg) + blank vehicle (control group); Group II: SGC003F (p.o., 1 mg/kg) + tariquidar (i.v., 7.5 mg/kg); Group III: SGC003F (p.o., 1 mg/kg) + tariquidar (p.o., 15 mg/kg); Group IV: SGC003F (i.v., 1 mg/kg) + blank vehicle; Group V: SGC003F (i.v., 1 mg/kg) + tariquidar (i.v., 7.5 mg/kg); Group VI: SGC003F (i.v., 1 mg/kg) + tariquidar (p.o., 15 mg/kg). Oral administration required fasting for 12 h in advance and free access to water. At 0.033 (i.v.), 0.083, 0.25, 0.5, 1, 2, 4, 8, 12, and 24 h after administration, 100 μL of blood was collected intravenously and placed in heparin tubes. All blood samples were centrifuged at 2500× g for 10 min at 4 °C, and plasma was stored at −40 °C for analysis.
The main pharmacokinetic parameters, such as time to peak (tmax), half-life (t1/2), peak concentration (Cmax), and area under the curve (AUC), bioavailability (F), were calculated using a non-compartmental model with WinNonlin 8.1 software (Princeton, NJ, USA).
The elimination rate constant (ke or λz) was determined from the terminal phase of the concentration–time curve by using a semilogarithmic plot. Furthermore, the half-life (t1/2) was calculated according to this equation t1/2 = 0.693/ke(1)
Bioavailability (F) was calculated according to Equation (2):F = Dose(i.v.) × AUC(p.o.)/Dose(p.o.) × AUC(i.v.) × 100%(2)

[1] = rat, po, 1 mg/kg, SGC003F p.o. 1 mg/kg, single
[2] = rat, po, 1 mg/kg, SGC003F p.o. 1 mg/kg, with tariquidar i.v. 7.5 mg/kg
[3] = rat, po, 1 mg/kg, SGC003F p.o. 1 mg/kg, with tariquidar p.o. 15 mg/kg
[4] = rat, po, 1 mg/kg, rat plasma, SGC003F p.o. 1 mg/kg, single
[5] = rat, po, 1 mg/kg, rat plasma, SGC003F p.o. 1 mg/kg, with tariquidar i.v. 7.5 mg/kg
[6] = rat, po, 1 mg/kg, rat plasma, SGC003F p.o. 1 mg/kg, with tariquidar p.o. 15 mg/kg
[7] = rat plasma, SGC003F p.o. 1 mg/kg, tariquidar i.v. 7.5 mg/kg
[8] = rat plasma, SGC003F p.o. 1 mg/kg, tariquidar p.o. 15 mg/kg
[9] = rat, SGC003F i.v. 1 mg/kg, tariquidar i.v. 7.5 mg/kg
[10] = rat, SGC003F i.v. 1 mg/kg, tariquidar p.o. 15 mg/kg
[11] = rat, SGC003F p.o. 1 mg/kg, tariquidar i.v. 7.5 mg/kg
[12] = rat, SGC003F p.o. 1 mg/kg, tariquidar p.o. 15 mg/kg

A clearance (rat, iv, 1 mg/kg, SGC003F i.v. 1 mg/kg, single) of 2.18 mL/min/kg, a clearance (rat, iv, 1 mg/kg, SGC003F i.v. 1 mg/kg, with tariquidar i.v. 7.5 mg/kg) of 2.03 mL/min/kg and a clearance (rat, iv, 1 mg/kg, SGC003F i.v. 1 mg/kg, with tariquidar p.o. 15 mg/kg) of 1.49 mL/min/kg were found for `COC(=O)Nc1c(N)nc(-c2nn(Cc3sccc3F)c3ncc(F)cc23)nc1N` [SGC003F] in this work. The AUC(0-t) (rat, iv, 1 mg/kg, rat plasma, SGC003F i.v. 1 mg/kg, single) was 7620 ± 560 ng·h/mL, the AUC(0-t) (rat, iv, 1 mg/kg, rat plasma, SGC003F i.v. 1 mg/kg, with tariquidar i.v. 7.5 mg/kg) was 8170 ± 530 ng·h/mL and the AUC(0-t) (rat, iv, 1 mg/kg, rat plasma, SGC003F i.v. 1 mg/kg, with tariquidar p.o. 15 mg/kg) was 11300 ng·h/mL. For the same compound, the Vd (rat, iv, 1 mg/kg, rat, SGC003F i.v. 1 mg/kg, single) was 0.419 ± 0.0318 L/kg, the Vd (rat, iv, 1 mg/kg, rat, SGC003F i.v. 1 mg/kg, with tariquidar i.v. 7.5 mg/kg) was 0.422 ± 0.0328 L/kg and the Vd (rat, iv, 1 mg/kg, rat, SGC003F i.v. 1 mg/kg, with tariquidar p.o. 15 mg/kg) was 0.382 ± 0.0266 L/kg. For the same compound, the Tmax [1] was 1.33 ± 0.52 h, the half-life [1] was 3.45 ± 0.46 h and the Tmax [2] was 1.5 ± 0.55 h. It also gave a half-life [2] of 4.31 ± 0.91 h, a Tmax [3] of 2.33 ± 1.37 h and a half-life [3] of 4.35 ± 0.35 h. It also gave an AUC(0-t) [4] of 3540 ± 610 ng·h/mL, a Cmax [4] of 673 ± 187 ng/mL and an AUC(0-t) [5] of 5690 ± 1080 ng·h/mL. The Cmax [5] was 722 ± 111 ng/mL, the AUC(0-t) [6] was 10800 ng·h/mL and the Cmax [6] was 1430 ± 250 ng/mL. The bioavailability (rat, po, 1 mg/kg, rat, SGC003F p.o. 1 mg/kg, single) was 46.4%, the bioavailability (rat, po, 1 mg/kg, rat, SGC003F p.o. 1 mg/kg, with tariquidar i.v. 7.5 mg/kg) was 69.7% and the bioavailability (rat, po, 1 mg/kg, rat, SGC003F p.o. 1 mg/kg, with tariquidar p.o. 15 mg/kg) was 95.1%. The bioavailability (rat, po, rat, SGC003F p.o. 1 mg/kg, with tariquidar p.o. 15 mg/kg) was 95%, the “AUC0-t, Ratio 1 (with Tar (i.v.)/single)” value (rat plasma, SGC003F i.v. 1 mg/kg, tariquidar i.v. 7.5 mg/kg) was 1.07 and the “AUC0-t, Ratio 2 (with Tar (p.o.)/single)” value (rat plasma, SGC003F i.v. 1 mg/kg, tariquidar p.o. 15 mg/kg) was 1.49. For the same compound, the “AUC0-t, Ratio 1 (with Tar (i.v.)/single)” value [7] was 1.61, the “Cmax, Ratio 1 (with Tar (i.v.)/single)” value [7] was 1.07 and the “AUC0-t, Ratio 2 (with Tar (p.o.)/single)” value [8] was 3.05. For the same compound, the “Cmax, Ratio 2 (with Tar (p.o.)/single)” value [8] was 2.13, the “CL, Ratio 1 (with Tar (i.v.)/single)” value [9] was 0.93 and the “Vss, Ratio 1 (with Tar (i.v.)/single)” value [9] was 1.00. For the same compound, the “CL, Ratio 2 (with Tar (p.o.)/single)” value [10] was 0.68, the “Reduction of CL versus control group” value [10] was 32% and the “Vss, Ratio 2 (with Tar (p.o.)/single)” value [10] was 0.91. The “F, Ratio 1 (with Tar (i.v.)/single)” value [11] was 1.50, the “Tmax, Ratio 1 (with Tar (i.v.)/single)” value [11] was 1.13 and the “t1/2, Ratio 1 (with Tar (i.v.)/single)” value [11] was 1.25. The “F, Ratio 2 (with Tar (p.o.)/single)” value [12] was 2.05, the “Tmax, Ratio 2 (with Tar (p.o.)/single)” value [12] was 1.75 and the “t1/2, Ratio 2 (with Tar (p.o.)/single)” value [12] was 1.26.
